How the values were obtained:
[1] = target: T1, UGT1A1 (Homo sapiens, UniProt P22309); assay: UGT supersome screening and kinetic analysis; assay type: in vitro ADME; conditions: 37°C
T1 sequence (P22309 26-533): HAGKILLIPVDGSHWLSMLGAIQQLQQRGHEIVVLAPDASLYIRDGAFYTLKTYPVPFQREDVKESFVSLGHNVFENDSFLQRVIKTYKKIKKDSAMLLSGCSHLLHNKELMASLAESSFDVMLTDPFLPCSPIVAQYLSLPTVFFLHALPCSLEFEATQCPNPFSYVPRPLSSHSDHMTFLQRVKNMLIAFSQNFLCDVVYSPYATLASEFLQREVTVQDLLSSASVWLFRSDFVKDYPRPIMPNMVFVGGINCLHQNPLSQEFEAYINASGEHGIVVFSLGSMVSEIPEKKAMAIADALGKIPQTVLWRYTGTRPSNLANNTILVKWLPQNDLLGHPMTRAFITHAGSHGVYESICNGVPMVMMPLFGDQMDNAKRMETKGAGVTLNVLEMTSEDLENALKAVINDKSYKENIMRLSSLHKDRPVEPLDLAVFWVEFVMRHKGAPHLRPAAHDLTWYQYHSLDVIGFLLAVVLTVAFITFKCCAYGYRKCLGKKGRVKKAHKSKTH
Method: Before the addition of substrate, the incubation mixture was prewarmed and equilibrated for 5 min at 37°C. […] The incubation mixture was vortexed and centrifuged (10,060 g) at 4°C for 10 min, and the supernatants were analyzed. Insect microsomes without UGT cDNA served as negative control. […] Incubations were performed as described above. Three independent experiments were performed for kinetic analysis.
Plots of substrate concentration, S (X axis) versus v (Y axis) were then constructed. Km and Vmax were calculated using the Michaelis-Menten equation (GraphPad software, Inc., San Diego, CA, USA).

[2] = design: method as in Investigator's Brochure, 2004; conditions: rats and dogs; ref Investigator's Brochure, 2004; cited from earlier work
[3] = tested on: CYP3A4; design: method as in protocol pharmaceutical information; conditions: ref protocol pharmaceutical information; cited from earlier work
[4] = tested on: five major cytochrome P450 enzymes; conditions: cited from earlier work

O=C(/C=C/c1cccc(S(=O)(=O)Nc2ccccc2)c1)NO [Belinostat, N-hydroxy-3-(phenylsulphamoylphenyl) acrylamide]
belinostat converted to belinostat-G ([1]; 2 h incubation with UGT1A1 supersomes): 73.6%
belinostat converted to belinostat-G ([1]; 4 h incubation with UGT1A1 supersomes): 89.4%
glucuronidation of belinostat by UGT isoform ([1]; UGT1A1 supersomes, 10 µM belinostat): glucuronidated belinostat significantly
elimination routes of PXD101 and its metabolites [2]: urinary and fecal routes
contribution of CYP3A4 to metabolism [3]: contributes to PXD101 metabolism
inhibition of the five major cytochrome P450 enzymes [4]: did not inhibit
